The results in this text go back to paper PMC3014287 (Molecular cell, 2010).

For assay [1], the target named is T1, PKCβII (Homo sapiens, UniProt P05771). The assay is described as follows: […] kinase assay with substrate peptide, Dixon plot. In kind it is biochemical.
Assay [2] addresses T1, PKCβII. The assay is described as above. It counts as biochemical. This is another data set of the same source.
Assay [3] has as its target AKAP79(1-81)-CKAR (human) (UniProt P24588).

As a reminder, the Ki is a measure of affinity in units of concentration, obtained from inhibition or displacement. A low value points to tighter binding.

With `O=C1NC(=O)C(c2c[nH]c3ccccc23)=C1c1c[nH]c2ccccc12` [BIS IV, bisindolylmaleimide IV], the “32P kinase assay with substrate peptide, Dixon plot” value at PKCβII [1] was “BIS IV, a bisindolylmaleimide derivative that lacks the dimethylamino group is an uncompetitive inhibitor with respect to the substrate peptide”.

In the case of `CN(C)CCCn1cc(C2=C(c3c[nH]c4ccccc34)C(=O)NC2=O)c2ccccc21` [BIS I, bisindolylmaleimide I], the affinity at PKCβII [2], expressed as Ki, was 14.5 ± 4.6 nM.

Take “PKCβII (Calbiochem) (from UniProt P05771-2 1-673) (enzyme)”: the T½ of the FRET response of the reporter to Oxo-M in CHO cells (cellular PKC) in assay [3] is 8.3 s.
